Patent publication US20140256793A1, “MEDICAMENT FOR DISEASES ASSOCIATED WITH AMYLOID beta AND SCREENING THEREOF” (National University Corporation Hokkaido University, priority 2011, published 2014)

Tests used:
N2a cells = experiment: Measurement of exosome release from N2a cells after siRNA, C6-ceramide or bacterial SMase treatment (Western blot); format: cell-based, murine; conditions: for exosome release / secretion after siRNA knockdown: Stealth RNAi siRNA, Western blot of exosome markers; for ratio of amount of Alix compared with a control: siRNA knockdown, exosome fraction
Method: (§1) As previously described (Thery C et al., Curr Protoc Cell Biol Chapter: Unit 3.22 (2006)), exosomes were prepared from culture supernatants of N2a and murine primary cultured cortical nerve cells. The culture medium was replaced with a serum-free medium on the day before the preparation of exosomes. The cell culture supernatants were collected after 24 hours and sequentially centrifuged at 3,000×g for 10 minutes, at 4,000×g for 10 minutes, and at 10,000×g for 30 minutes to remove cells, dead cells, and cell fragments, and then spun down again at 100,000×g for one hour to obtain exosomes as pellets.
(§2) Treatment with imipramine (10 μM), GW4869 (10 μM), D609 (50 μM) C6-ceramide (50 μM) or bacterial SMase (100 μU/ml) was performed for 24 hours in a serum-free medium.
For RNA-mediated interference (RNAi) experiments, the inventors used Stealth RNAi™ siRNA (Invitrogen) with the following sequences:
Stealth™ Control RNA was obtained from Invitrogen SiRNA was delivered according to the manufacturer's protocol by using a Lipofectamine™ transfection reagent (Invitrogen).
(§3) Exosome pellets purified from cultures of 5×10^6 cells were solubilized with Laemmli buffer (Laemmli U K, Nature (1970) 227: 680-685) and subjected to SDS-PAGE and Western blotting. Blots were probed with a primary antibody and then probed with an HRP-conjugated secondary antibody. Bands were detected and analyzed using a combination of an ECL Plus kit (GE Healthcare) and an LAS4000 (Fujifilm Corporation).

[1] = system: N2a cells and primary cultured nerve cells; experiment: Measurement of exosome release after drug treatment (Western blot of Alix, Tsg101, GM1 in 100,000×g pellets); format: cell-based, murine; conditions: 24 hours in serum-free medium; imipramine 10 μM, GW4869 10 μM, D609 50 μM
Method: as §1, §2, §3

[2] = system: BV-2 cells or primary cultured microglia; experiment: Aβ42 uptake into microglia (ELISA); format: cell-based, murine
[3] = system: BV-2 cells or primary cultured microglia; experiment: Fluorescence staining and internalization assay of PKH26-labeled exosomes; format: cell-based, murine
Aβ = experiment: Thioflavin T test of Aβ amyloid fibril formation with exosomes; format: biochemical, human; conditions: exosomes from inhibitor- or siRNA-treated cells mixed with 25 μM Aβ42, five hours at 37° C.
Method: A seed-free Aβ solution was prepared essentially according to the previous report (Naiki H et al., Methods Enzymol (1999) 309: 305-318). Briefly stated, synthetic Aβ40 and Aβ42 were dissolved in a 0.02% ammonium solution at 500 μM and 300 μM, respectively. In order to remove undissolved Aβ aggregates that can act as pre-existing seeds, the prepared solution was centrifuged at 540,000×g for three hours at 4° C. The obtained supernatant was collected and stored at −80° C. until use.
Seed free Aβ (25 μM) was incubated in 100 μl of TBS comprising 0 μl, 1 μl, or 10 μl of exosome solution at 37° C. 1 μl of exosome solution was collected from culture supernatants of 1×10^6 cells. As described in the prior art document (Naiki H et al., Methods Enzymol (1999)309:305-318), fluorescence intensity of ThT in the mixture was measured using an Appliskan spectrofluorophotometer (Thermo Fisher Scientific). The optimal fluorescence intensities of amyloid fibrils were measured at an excitation wavelength of 446 nm and fluorescent wavelength of 490 nm by using a reaction mixture comprising 5 μM ThT and 50 mM glycine/NaOH with pH of 8.5.

N2a cells and BV-2 cells = experiment: Transwell experiment: N2a-APP cells with BV-2 cells, Aβ levels by ELISA; format: cell-based, murine; conditions: for extracellular Aβ levels: no BV-2 cells on the lower wells, N2a-APP cells treated with siRNA
Method: Aβ40 and Aβ42 levels were measured by using a sandwich enzyme-linked immunosorbent assay (ELISA) kit from Wako. Aggregated Aβs both in medium and cells were solubilized with 4 M guanidine-HCl buffer for 2 hours at room temperature and then were subjected to ELISA. All samples were measured in duplicates.
(§4) N2a cells were cultured on 24-well plate inserts (0.5 μm pore, Costar) at 5×10^5 cells/cm^2 and then transfected with the APP770 plasmid simultaneously with siRNA for nSMase2 or SMS2 by using a Lipofectamine-2000. After 24 hours from the transfection, inserts were placed onto wells containing BV-2 cells. After an additional 24 hours of incubation, Aβ levels in the medium were measured by ELISA. Intracellular Aβ levels in BV-2 cells were also measured using ELISA after solubilization in guanidine HCl buffer as described above.

N2a-APP cells = experiment: Western blot of 100,000×g pellets from media of N2a-APP cells transfected with siRNA; format: cell-based, murine; conditions: for levels of released exosomes, estimated by the amounts of Alix and Tsg101: siRNA knockdown
Method: as §3, §4

[4] = in the presence of BV-2 cells in the lower wells, 24 hours

Molecule: CCCCCCCCCCCCC/C=C/[C@@H](O)[C@H](CO)NC(=O)CCCCC [C6-ceramide, N-hexanoyl-D-erythro-sphingosine]
- release levels of exosomes (N2a cells; C6-ceramide 50 μM or bacterial SMase 100 μU/ml, 24 hours): significantly increased

Molecule: CN(C)CCCN1c2ccccc2CCc2ccccc21 [imipramine]
- levels of released exosomes (exosomal markers Alix, Tsg101, GM1 in 100,000×g pellets) [1]: did not change

Molecule: AV: annexin V, specifically recognizes phosphatidylserine (PS)
- Aβ uptake into microglia [2]: significantly suppressed
- uptake of exosomes into BV-2 cells or primary cultured microglia [3]: significantly suppressed

Molecule: O=C(/C=C/c1ccc(/C=C/C(=O)Nc2ccc(C3=NCCN3)cc2)cc1)Nc1ccc(C2=NCCN2)cc1 [GW4869]
- levels of released exosomes (exosomal markers Alix, Tsg101, GM1 in 100,000×g pellets) [1]: significantly decreased
- Aβ fibrillogenesis (ThT fluorescence) by exosomes purified from treated cultures, compared with controls (Aβ): significantly reduced

Molecule: SMS1 siRNA: Stealth RNAi siRNA (Invitrogen) for SMS1, sense 5′-AUACAUUGUAAUACACCGAUACAGG-3′ (antisense CCUGUAUCGGUGUAUUACAAUGUAU; Commercial Stealth RNAi siRNA, modifications not given here)
- exosome release / secretion after siRNA knockdown (N2a cells): significant increases
- ratio of amount of Alix compared with a control (N2a cells): 186.02±9.77%

Molecule: aSMase siRNA: Stealth RNAi siRNA (Invitrogen) for aSMase, sense 5′-AUUGGUUUCCCUUUAUGAAGGGAGG-3′ (antisense CCUCCCUUCAUAAAGGGAAACCAAU; Commercial Stealth RNAi siRNA, modifications not given here)
- exosome release / secretion after siRNA knockdown (N2a cells): did not change

Molecule: nSMase1 siRNA: Stealth RNAi siRNA (Invitrogen) for nSMase1, sense 5′-AAUAGAACCACAUCUGCAUUCUUGG-3′ (antisense CCAAGAAUGCAGAUGUGGUUCUAUU; Commercial Stealth RNAi siRNA, modifications not given here)
- exosome release / secretion after siRNA knockdown (N2a cells): did not change

Molecule: S=C([S-])OC1CC2CC1C1CCCC21.[K+] (stereo not shown) [D609]
- levels of released exosomes (exosomal markers Alix, Tsg101, GM1 in 100,000×g pellets) [1]: significant enhancement
- Aβ fibrillogenesis (ThT fluorescence) by exosomes purified from treated cultures, compared with controls (Aβ): increased

Molecule: SMS2 siRNA: Stealth RNAi siRNA (Invitrogen) for SMS2, sense 5′-AUACAUAGUUAUACAGCGAUACAGG-3′ (antisense CCUGUAUCGCUGUAUAACUAUGUAU; commercial Stealth RNAi siRNA, chemistry not given here)
- Aβ levels in the BV-2 cells (N2a cells and BV-2 cells; compared with treatment with control RNA): significantly increased
- level of Aβ40 in the culture media (N2a cells and BV-2 cells; [4]): significantly decreased
- level of Aβ42 in the culture media (N2a cells and BV-2 cells; [4]): significantly decreased
- extracellular Aβ levels (N2a cells and BV-2 cells): unchanged
- exosome release / secretion after siRNA knockdown (N2a cells): significant increases
- ratio of amount of Alix compared with a control (N2a cells): 424.75±45.96%
- Aβ in 100,000×g pellets (N2a-APP cells; Western blotting): detected
- levels of released exosomes, estimated by the amounts of Alix and Tsg101 (N2a-APP cells): obviously modulated
- Aβ fibrillogenesis (ThT fluorescence) by exosomes purified from treated cultures, compared with controls (Aβ): increased

Molecule: nSMase2 siRNA: Stealth RNAi siRNA (Invitrogen) for nSMase2, sense 5′-AAUCGAUGUAGAUCUUGAUCUGAGG-3′ (antisense CCUCAGAUCAAGAUCUACAUCGAUU; commercial Stealth RNAi siRNA, chemistry not given here)
- extracellular Aβ levels (N2a cells and BV-2 cells): unchanged
- exosome release / secretion after siRNA knockdown (N2a cells): reduced
- levels of released exosomes, estimated by the amounts of Alix and Tsg101 (N2a-APP cells): obviously modulated
- Aβ fibrillogenesis (ThT fluorescence) by exosomes purified from treated cultures, compared with controls (Aβ): significantly reduced
